Test results published in US6710165B2, “IgE-dependent histamine-releasing factor-binding peptides” (priority 2000, dated 2004).

Key:
RBL-2H3 cells = assay: Inhibition of histamine release by HRF (RIA); format: cell-based; conditions: for effect on histamine release by HRF: peptide 20 μg/ml, HRF 20 μg/ml
Method: The full-length rat HRF sequence (Chitpatima, et al., 1988) amplified by PCR was cloned in pRSET-A vector and overexpressed in E. coli. The expressed recombinant protein was purified by His-bound Ni column (Novagen) and used for the stimulation of RBL-2H3 cells. RBL-2H3 cells were grown in 24-well plate at 1×10^6 cells, sensitized with rat IgE antibodies (0.2 μg/ml, Serotec) for 45˜60 minutes and then, treated with 20 μg/ml of the recombinant HRF protein (positive control). The cells as prepared above were dose-dependently treated with heptamer peptides p1 and p2. Also, they were treated with the recombinant HRF protein and peptides p1, p2, p4 and m1 to m7 at the same concentration as that of HRF, i.e. 20 μg/ml, respectively,
The obtained sample was prepared to acylated histamine using RIA-analysis kit (Immunotech, France) and then, competitively bound to ^125I-acylated histamine and monoclonal antibodies. This sample was reanalyzed in γ-counter.

HRF = target: T1, HRF (Rattus norvegicus, UniProt P63029); assay: Competition binding assay of synthetic peptides against phage clones; conditions: for binding site on HRF, competitive binding analysis on ph2: competition with ph2; for competition of synthetic peptide with phage clones for HRF: peptide 0.001-1000 nM, phage 1/25-fold diluted
T1 construct: His tag (pRSET-A); made in house; host or cells: E. coli
T1 sequence (P63029 1-172): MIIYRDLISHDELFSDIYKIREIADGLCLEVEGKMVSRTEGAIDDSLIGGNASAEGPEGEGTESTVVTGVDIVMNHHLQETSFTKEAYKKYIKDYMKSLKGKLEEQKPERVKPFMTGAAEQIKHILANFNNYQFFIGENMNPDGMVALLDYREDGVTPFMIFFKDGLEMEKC
Method: Also, as a negative control, random peptide (ran, amino acid sequence: LMEGCRA) was synthesized. To the wells coated with HRF was added each 30 μl of the peptide solution serially diluted in 6% BSA/PBS from 1000 nM (1000, 100, 10, 1, 0.1, 0.01, 0.001 nM) and the solution was allowed to stand at room temperature for 30 minutes. The 1/25-fold diluted phage solution was added thereto and the whole solution was further allowed to stand for 2 hours. The solution was washed five times with PBST and then, each 100 μl of HRP-conjugated anti-M13 antibodies were added thereto and then, the resulting mixture was allowed to stand for 1 hour. The mixture was washed 6 times with PBST and once with PBS, and thereto was added each 100 μl of peroxydase substrate solution to examine the competition.
b) In order to test whether or not p1, p2 and p4 bind to the identical site on HRF, the wells were coated with HRF according to the substantially same procedure as in the above a).

malaria protein HRF = malaria protein HRF (Plasmodium falciparum, UniProt Q8I3Z5); conditions: cited from earlier work
PC12 cells = assay: Inhibition of HRF-stimulated dopamine release by HRF-binding peptide; format: cell-based; conditions: 60 μg/ml of p2, 15 μg/ml of HRF
Method: In order to confirm whether the peptides blocking histamine release by HRF also block neurotransmitters release in nerve cells, the peptide of SEQ ID No. 14 (p2) was tested for its effects on dopamine release stimulated by HRF according to the substantially same procedure as in Example 16.

malaria protein HRF, sequence (Q8I3Z5 whole entry): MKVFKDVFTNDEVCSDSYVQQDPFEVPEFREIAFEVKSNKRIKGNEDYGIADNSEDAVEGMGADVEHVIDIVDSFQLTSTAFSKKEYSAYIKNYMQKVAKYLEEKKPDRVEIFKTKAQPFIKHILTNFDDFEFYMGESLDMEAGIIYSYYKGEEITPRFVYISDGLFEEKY

Compound	effect on histamine release by HRF (RBL-2H3 cells)	other results
WYVYPSA [m7, p2 variant, alanine substitution]	inhibited histamine release by HRF	
WEFPGWM (OTHER INFORMATION: IgE-dependent histamine-releasi ng factor binding peptide) [p4]	inhibited histamine release by HRF	binding site on HRF, competitive binding analysis on ph2 (HRF): bound to the identical site on HRF; competition of synthetic peptide with phage clones for HRF (HRF): bind to HRF competitively with phage clones ph2 and ph4
C[C@@H]1CC[C@H]2[C@@H](C)C(=O)O[C@@H]3O[C@@]4(C)CC[C@@H]1[C@]32OO4 [Artemisinin]		binding to malaria protein HRF (malaria protein HRF): binds to malaria protein HRF
WYVYKSM (OTHER INFORMATION: IgE-dependent histamine-releasi ng factor binding peptide) [m5, p2 variant, substituted with Lysine (K)]	inhibited histamine release by HRF	
WAVYPSM (OTHER INFORMATION: IgE-dependent histamine-releasi ng factor binding peptide) [m2, p2 variant, alanine substitution]	inhibited histamine release by HRF	
WYVAPSM (OTHER INFORMATION: IgE-dependent histamine-releasi ng factor binding peptide) [m4, p2 variant, alanine substitution]	inhibited histamine release by HRF	
WYAYPSM (OTHER INFORMATION: IgE-dependent histamine-releasi ng factor binding peptide) [m3, p2 variant, alanine substitution]	inhibited histamine release by HRF	
AYVYPSM (OTHER INFORMATION: IgE-dependent histamine-releasi ng factor binding peptide) [m1, p2 variant, alanine substitution]	inhibited histamine release by HRF	
WYVYPSM (OTHER INFORMATION: IgE-dependent histamine-releasi ng factor binding peptide) [p2]	inhibited histamine release by HRF	binding site on HRF, competitive binding analysis on ph2 (HRF): bound to the identical site on HRF; competition of synthetic peptide with phage clones for HRF (HRF): bind to HRF competitively with phage clones ph2 and ph4; peptide concentration that inhibited histamine release (RBL-2H3 cells; dose-response, 20 μg/ml HRF): ≥ 0.01 µg/mL; inhibition of HRF-increased dopamine release (PC12 cells): about 60%
LVTYPLP (OTHER INFORMATION: IgE-dependent histamine-releasi ng factor binding peptide) [p1]	inhibited histamine release by HRF	binding site on HRF, competitive binding analysis on ph2 (HRF): bound to the identical site on HRF
WYVYPAM (OTHER INFORMATION: IgE-dependent histamine rele asing factor binding peptide) [m6, p2 variant, alanine substitution]	conversely stimulated histamine release	
